“Also recorded” adds a separate entry of the source.
Experiments:
[1] = in vitro; conditions: pig, PAMPA
Procedure: (§1) To evaluate the brain penetration of the different compounds, a parallel artificial membrane permeation assay for blood-brain barrier was used, following the method described by Di et al. (cf. Table 2). The in vitro permeability (Pe) of fourteen commercial drugs through lipid extract of porcine brain membrane together with the test compounds were determined. Commercial drugs and assayed compounds were tested using a mixture of PBS:EtOH (70:30).

[2] = test system: 5XFAD mice; assay: Novel Object Recognition Test (NORT) in 5XFAD mice
Procedure: (§2) Mice were placed in a 90°, two-arm, 25-cm-long, 20-cm-high, 5-cm-wide black maze. The walls could be lifted off for easy cleaning. Light intensity in the middle of the field was 30 lux. The objects to be discriminated were made of plastic and were chosen not to frighten the mice, and objects with parts that could be bitten were avoided. Before performing the test, the mice were individually habituated to the apparatus for 10 min during 3 days. On day 4, the animals were submitted to a 10-min acquisition trial (first trial), during which they were placed in the maze in the presence of two identical, novel objects (A+A or B+B) at the end of each arm. A 10-min retention trial (second trial) was carried out 2 h later. During this second trial, objects A and B were placed in the maze and the behavior of the mice was recorded with a camera. Time that the mice explored the new object (TN) and Time that the mice explored the Old object (TO) were measured. A Discrimination Index (DI) was defined as (TN−TO)/(TN+TO). In order to avoid object preference biases, A and B were counterbalanced so that one half of the animals in each experimental group were exposed first to A and then to B, whereas the remaining half saw B first and then A. The maze and the objects were cleaned with 70° ethanol after each test in order to eliminate olfactory cues.

[3] = test system: Cxcl10; assay: Gene expression of inflammatory marker Cxcl10 by real-time PCR in 5XFAD mice; conditions: 5×FAD
Procedure: (§3) Total RNA isolation was carried out by means of Trizol reagent following manufacturer's instructions. […] Samples were also tested in an Agilent 2100B Bioanalyzer (Agilent Technologies) to determine the RNA integrity number. Reverse Transcription-Polymerase Chain Reaction (RT-PCR) was performed as follows: 2 μg of messenger RNA (mRNA) was reverse-transcribed using the High Capacity complementary DNA (cDNA) Reverse Transcription Kit (Applied Biosystems). Normalization of expression levels was performed with actin. SYBER Green, real-time PCR was performed in the Step One Plus Detection System (Applied Biosystems) employing the SYBR Green PCR Master Mix. Each reaction mixture contained 7.5 μL of cDNA, whose concentration was 2 μg, 0.75 μL of each primer (whose concentration was 100 nM), and 7.5 μL of SYBR Green PCR Master Mix (2×). Data were analyzed utilizing the comparative Cycle threshold (Ct) method (Fold Change), where the actin transcript level was used to normalize differences in sample loading and preparation. Each sample (n=4-5) was analyzed in triplicate, and results represented the n-fold difference of transcript levels among different samples.

[4] = test system: SAMP8 mice; assay: Novel Object Recognition Test (NORT) in SAMP8 mice
Procedure: as §2

[5] = test system: Cxcl10; assay: Gene expression of inflammatory marker Cxcl10 by real-time PCR in SAMP8 mice
Procedure: as §3

[6] = predictive penetration in the CNS from PAMPA-BBB Pe
Procedure: as §1

[7] = test system: II-6; assay: Gene expression of inflammatory marker II-6 by real-time PCR in SAMP8 mice
Procedure: as §3

[8] = test system: II-6; assay: Gene expression of inflammatory marker II-6 by real-time PCR in 5XFAD mice; conditions: 5×FAD
Procedure: as §3

[9] = Dissolution of test compounds noted in the PAMPA-BBB assay (PBS:EtOH 70:30); assay type: physicochemical; design: key: *= poor dissolution
Procedure: as §1

[10] = molecular target: I2-IR; assay: Competition binding against the selective I2-IR radioligand [3H]-2-BFI in membranes from post-mortem human frontal cortex; conditions: membranes from post-mortem human frontal cortex; radioligand [3H]-2-BFI

Structure (SMILES)	Papp [1] [×10⁻⁶ cm/s]	CNS Prediction [6]	dissolution [9]	[^3H]-2-BFI I2 binding affinity (pKi) [10]	other results
CCOP(=O)(OCC)[C@]1(c2ccccc2)N=C[C@H]2C(=O)N(c3ccc(F)c(Cl)c3)C(=O)[C@H]21 (racemic) [Compound I-06, Diethyl (1RS,3aSR,6aSR)-5-(3-chloro-4-fluorophenyl)-4,6-dioxo-1-phenyl-1,3a,4,5,6,6a-hexahydropyrrolo[3,4-c]pyrrole-1-phosphonate]	9.7 ± 0.7	CNS+ (compounds of high BBB permeation (CNS+): Pe (10^−6 cm s^−1)>5,179)			cognitive / memory effect in NORT (in words) ([2]; 5XFAD mice, treated group compared to the control): recovered DI levels of the Wild Type (Wt) control group; also recorded: improves cognitive abilities; DI (−1, 1) NORT 2 h ([2]; female 5XFAD mice at 6 months, 5 mg/kg, retention 2 h): 0.199 ± 0.053; DI (−1, 1) NORT 24 h ([2]; female 5XFAD mice at 6 months, 5 mg/kg, retention 24 h): 0.229 ± 0.051; Cxcl10 marker of neuroinflammation, gene expression in brain (in words) [3]: reduced; cognitive / memory effect in NORT (in words) ([4]; SAMP8 mice, treated group compared to the control): reduced memory deficits; also recorded: improves cognitive abilities; DI (−1, 1) NORT 2 h ([4]; female SAMP8 mice at 12 months, 5 mg/kg, retention 2 h, mean ± SEM): 0.33 ± 0.071; DI (−1, 1) NORT 24 h ([4]; female SAMP8 mice at 12 months, 5 mg/kg, retention 24 h): 0.273 ± 0.042; Cxcl10 marker of neuroinflammation, gene expression in brain (in words) [5]: reduced; II-6 marker of neuroinflammation, gene expression in brain (in words) [7]: reduced; II-6 marker of neuroinflammation, gene expression in brain (in words) [8]: reduced
O=C1[C@@H]2[C@@H](C=N[C@@]2(c2ccccc2)P(=O)(Oc2ccccc2)Oc2ccccc2)C(=O)N1c1ccccc1 (racemic) [Compound I-26, Diphenyl (1RS,3aSR,6aSR)-4,6-dioxo-1,5-diphenyl-1,3a,4,5,6,6a-hexahydropyrrolo[3,4-c]pyrrole-1-phosphonate]	2.3 ± 0.04	CNS+/− (compounds of uncertain BBB permeation (CNS+/−): 5,179>Pe (10^−6 cm s^−1)>2,083)	I-26*	5.86 ± 1.22	
CCOP(=O)(OCC)[C@]1(c2ccccc2)N=C[C@H]2C(=O)N(c3cccc([N+](=O)[O-])c3)C(=O)[C@H]21 (racemic) [Compound I-28, Diethyl (1RS,3aSR,6aSR)-5-(3-nitrophenyl)-4,6-dioxo-1-phenyl-1,3a,4,5,6,6a-hexahydropyrrolo[3,4-c]pyrrole-1-phosphonate]	4.5 ± 0.25	CNS+/− (compounds of uncertain BBB permeation (CNS+/−): 5,179>Pe (10^−6 cm s^−1)>2,083)	I-28*	6.81 ± 0.27	
CCOP(=O)(OCC)[C@]1(c2ccccc2)N=C[C@H]2C(=O)N(Cc3ccccc3)C(=O)[C@H]21 (racemic) [Compound I-29, Diethyl (1RS,3aSR,6aSR)-5-benzyl-4,6-dioxo-1-phenyl-1,3a,4,5,6,6a-hexahydropyrrolo[3,4-c]pyrrole-1-phosphonate]	> 30	CNS+ (compounds of high BBB permeation (CNS+): Pe (10^−6 cm s^−1)>5,179)	I-29*	5.26 ± 0.22	
CCOP(=O)(OCC)[C@]1(c2ccccc2)N=C[C@H]2C(=O)N(c3ccc(Oc4ccccc4)cc3)C(=O)[C@H]21 (racemic) [Compound I-34, Diethyl (1RS,3aSR,6aSR)-4,6-dioxo-5-(4-phenoxyphenyl)-1-phenyl-1,3a,4,5,6,6a-hexahydropyrrolo[3,4-c]pyrrole-1-phosphonate]	6.5 ± 0.02	CNS+ (compounds of high BBB permeation (CNS+): Pe (10^−6 cm s^−1)>5,179)		6.96 ± 0.30	
CCOP(=O)(OCC)[C@]1(c2ccccc2)N=C[C@H]2C(=O)N(c3ccc(Br)cc3)C(=O)[C@H]21 (racemic) [Compound I-47, Diethyl (1RS,3aSR,6aSR)-5-(4-bromophenyl)-4,6-dioxo-1-phenyl-1,3a,4,5,6,6a-hexahydropyrrolo[3,4-c]pyrrole-1-phosphonate]	4.4 ± 0.4	CNS+/− (compounds of uncertain BBB permeation (CNS+/−): 5,179>Pe (10^−6 cm s^−1)>2,083)	I-47*		
CCOP(=O)(OCC)[C@]1(c2ccccc2)N=C[C@H]2C(=O)N(c3cc([N+](=O)[O-])ccc3C)C(=O)[C@H]21 (racemic) [Compound I-50, Diethyl (1RS,3aSR,6aSR)-5-(2-methyl-5-nitrophenyl)-4,6-dioxo-1-phenyl-1,3a,4,5,6,6a-hexahydropyrrolo[3,4-c]pyrrole-1-phosphonate]	1.4 ± 0.04	CNS− (compounds of low BBB permeation (CNS−): Pe (10^−6 cm s^−1)<2,083)	I-50*		
CCOP(=O)(OCC)[C@]1(c2ccccc2)N=C[C@H]2C(=O)N(c3cccc(Cl)c3)C(=O)[C@H]21 (racemic) [Compound I-53, Diethyl (1RS,3aSR,6aSR)-5-(3-chlorophenyl)-4,6-dioxo-1-phenyl-1,3a,4,5,6,6a-hexahydropyrrolo[3,4-c]pyrrole-1-phosphonate]	3.7 ± 0.1	CNS+/− (compounds of uncertain BBB permeation (CNS+/−): 5,179>Pe (10^−6 cm s^−1)>2,083)	I-53*		

From US20220064195A1, “SYNTHETIC I2 IMIDAZOLINE RECEPTOR LIGANDS FOR PREVENTION OR TREATMENT OF HUMAN BRAIN DISORDERS” (Universitat de Barcelona, priority 2018, published 2022)
